What was measured:
Assay type in all cases: cell-based
[1] = tested on: Staphylococcus aureus UC ® No. 6685; experiment: In vitro antimicrobial activity, MIC by agar dilution, S. aureus 6685; conditions: UC6685, Mueller Hinton agar + 1% Supplement C, 35° C., 18 hours, read-out: Minimum inhibitory concentration (MIC), S. a. 6685
Method: (§1) Antimicrobial activity was tested in vitro using the procedure described in National Committee for Clinical Laboratory Standards. Methods for dilution antimicrobial susceptibility tests for bacteria that grow aerobically--third edition; Approved Standard. NCCLS Document M7-A3. Villanova, Pa.: NCCLS; 1993. Minimum inhibitory concentration (MIC) values were determined by an agar dilution method (1) in which the test medium was Mueller Hinton agar (MHA; Difco Laboratories, Detroit, Mich.) supplemented with 1% Supplement C (Difco). Serial two-fold dilutions of each compound were prepared using 1.0 ml volumes of sterile distilled water. To each 1.0 ml aliquot was added 9.0 ml of molten agar medium. The drug-supplemented agar was mixed, poured into 15×100 mm petri dishes, and allowed to solidify and dry at room temperature prior to inoculation. The test cultures were grown aerobically overnight at 35° C. on MHA; streptococcal strains were grown on Trypticase Soy Blood Agar Base EH (Difco) supplemented with 5% defibrinated sheep blood (BBL, Becton Dickinson Company, Cockeysville, Md.). Colonies were harvested with a sterile swab, and cell suspensions were prepared in Trypticase Soy Broth (TSB; Becton Dickinson Company) to equal the turbidity of a 0.5 McFarland standard. A 1:19 dilution of the suspension was made in TSB; this diluted suspension constituted the inoculum for the assay. The plates containing the drug-supplemented agar were inoculated with a 0.001 ml drop of the cell suspensions using a Steers replicator (Melrose Machine Shop, Woodlyn, Pa.), yielding approximately 10^4 -10^5 cells per spot. The plates were incubated aerobically at 35° C. for 18 hours and the MIC was read as the lowest concentration of drug that inhibited visible growth of the organism. The growth of a single colony was considered to be negative.

[2] = tested on: Staphylococcus aureus UC ® No. 9213; experiment: In vitro antimicrobial activity, MIC by agar dilution, S. aureus 9213; conditions: UC9213, Mueller Hinton agar + 1% Supplement C, 35° C., 18 hours, read-out: Minimum inhibitory concentration (MIC), S. a. 9213
Method: as §1

[3] = tested on: Streptococcus Pneumoniae UC ® No. 9912; experiment: In vitro antimicrobial activity, MIC by agar dilution, S. pneumoniae 9912; conditions: UC9912, Mueller Hinton agar + 1% Supplement C, 35° C., 18 hours, read-out: Minimum inhibitory concentration (MIC), S. p. 9912
Method: as §1

Row | SMILES | MIC [1] [mg/L] | MIC [2] [mg/L] | MIC [3] [mg/L]
1 | CC(=O)NC[C@H]1CN(c2ccc3c(c2)OCC2CN(C(=O)COCc4ccccc4)CCN32)C(=O)O1 (stereo partly drawn) [Example 2, N-[[3-[1,2,3,4,4a, 5-Hexahydro-3-[(phenylmethoxy)acetyl]pyrazino[2,1-c] [1, 4]benzoxazin-8-yl]-2-oxo-5-(S)-oxazolidinyl]methyl]-acetamide] | 8 | 8 | 2
2 | CC(=O)NC[C@H]1CN(c2ccc3c(c2)OCC2CN(C(=O)OCc4ccccc4)CCN32)C(=O)O1 (stereo partly drawn) [Example 1, 8-[5-(S)-[(acetylamino)methyl]-2-oxo-3-oxazolidinyl]-1,2,4a, 5-tetrahydropyrazino[2,1-c] [1, 4]benzoxazine-3(4 H)-carboxylic acid phenylmethyl ester] | 4 | 8 | 1
3 | CC(=O)NC[C@H]1CN(c2ccc3c(c2)OC[C@H]2CN(C(=O)OCc4ccccc4)CCN32)C(=O)O1 [Example 7a, (R)-8-[5-(S)-[(acetylamino)methyl]-2-oxo-3-oxazolidinyl]-1,2,4a, 5-tetrahydropyrazino[2,1-c][1,4]benzoxazin-3(4 H)-carboxylic acid phenylmethyl ester] | 4 | 8 | 1
4 | CC(=O)NC[C@H]1CN(c2ccc3c(c2)OCC2CN(C(=O)c4cc5ccccc5[nH]4)CCN32)C(=O)O1 (stereo partly drawn) [Example 6, N-[[3-[1,2,3,4,4a, 5-hexahydro-3-(1 H-indol-2-ylcarbonyl)pyrazino[2,1-c] [1, 4]benzoxazin-8-yl]-2-oxo-5-(S)-oxazolidinyl]methyl]-acetamide] | 4 | 8 | 1
5 | CC(=O)NC[C@H]1CN(c2ccc3c(c2)OCC2CN(C(=O)CO)CCN32)C(=O)O1 (stereo partly drawn) [Example 4] | 8 | 8 | 1
6 | COC(=O)N1CCN2c3ccc(N4C[C@H](CNC(C)=O)OC4=O)cc3OC[C@H]2C1 [Example 8a, (R)-8-[5-(S)-[(acetylamino)methyl]-2-oxo-3-oxazolidinyl]-1,2,4a, 5-tetrahydropyrazino[2,1-c] [1, 4]benzoxazine-3(4 H)-carboxylic acid methyl ester] | 4 | 4 | 0.5
7 | COC(=O)N1CCN2c3ccc(N4C[C@H](CNC(C)=O)OC4=O)cc3OCC2C1 (stereo partly drawn) [Example 3, 8-[5-(S)-[(Acetylamino)methyl]-2-oxo-3-oxazolidinyl]-1,2,4a, 5-tetrahydropyrazino[2,1-c] [1, 4]benzoxazine-3(4 H)-carboxylic acid methyl ester] | 4 | 8 | 1
8 | COC(=O)N1CCN2c3ccc(N4C[C@H](CNC(C)=O)OC4=O)cc3OC[C@@H]2C1 [Example 8b, (S)-8-[5-(S)-[(acetylamino)methyl]-2-oxo-3-oxazolidinyl]-1,2,4a, 5-tetrahydropyrazino[2,1-c] [1, 4]benzoxazine-3(4 H)-carboxylic acid methyl ester] | 8 | 8 | 2
9 | CC(=O)NC[C@H]1CN(c2ccc3c(c2)OCC2CN(C(=O)c4ccno4)CCN32)C(=O)O1 (stereo partly drawn) [Example 5, N-[[3-[1,2,3,4,4a, 5-Hexahydro-3-(5-isoxazolylcarbonyl)pyrazino[2,1-c] [1, 4]benzoxazin-8-yl]-2-oxo-5-(S)-oxazolidinyl]methyl]-acetamide] | 2 | 4 | < 0.5
10 | CC(=O)NC[C@H]1CN(c2ccc3c(c2)OC[C@H]2CCCCN32)C(=O)O1 [Example 9a, (R)-N-[[[1,2,3,4,4a, 5-hexahydropyridino[2,1-c][1, 4]benzoxazin-8-yl]-2-oxo-5-(S)-oxazolidinyl]methyl]-acetamide] | 8 | 16 | 2
11 | CC(=O)NC[C@H]1CN(c2ccc3c(c2)OC[C@@H]2CCCCN32)C(=O)O1 [Example 9b, (S)-N-[[[1,2,3,4,4a, 5-hexahydropyridino[2,1-c][1, 4]benzoxazin-8-yl]-2-oxo-5-(S)-oxazolidinyl]methyl]-acetamide] | 4 | 8 | 2
12 | CC(=O)NC[C@H]1CN(c2ccc3c(c2)OC[C@@H]2CN(C(=O)OCc4ccccc4)CCN32)C(=O)O1 [Example 7b, (S)-8-[5-(S)-[(acetylamino)methyl]-2-oxo-3-oxazolidinyl]-1,2,4a, 5-tetrahydropyrazino[2,1-c][1,4]benzoxazin-3(4H)-carboxylic acid phenylmethyl ester] | 8 | 8 | 2

Source: US5922707A, “Oxazolidinone antibacterial agent with tricyclic substituents” (Pharmacia & Upjohn Company, priority 1997, dated 1999)
